Results on one compound are retold here after article PMC11249637, “Interaction of the Atypical Tetracyclines Chelocardin and Amidochelocardin with Renal Drug Transporters” (ACS Pharmacology & Translational Science, 2024).

One data set has as its target T1, mOat1 (Mus musculus, UniProt Q8VC69).
T1 construct: expressed in transfected cells; host or cells: HEK293
T1 sequence (Q8VC69 1-545): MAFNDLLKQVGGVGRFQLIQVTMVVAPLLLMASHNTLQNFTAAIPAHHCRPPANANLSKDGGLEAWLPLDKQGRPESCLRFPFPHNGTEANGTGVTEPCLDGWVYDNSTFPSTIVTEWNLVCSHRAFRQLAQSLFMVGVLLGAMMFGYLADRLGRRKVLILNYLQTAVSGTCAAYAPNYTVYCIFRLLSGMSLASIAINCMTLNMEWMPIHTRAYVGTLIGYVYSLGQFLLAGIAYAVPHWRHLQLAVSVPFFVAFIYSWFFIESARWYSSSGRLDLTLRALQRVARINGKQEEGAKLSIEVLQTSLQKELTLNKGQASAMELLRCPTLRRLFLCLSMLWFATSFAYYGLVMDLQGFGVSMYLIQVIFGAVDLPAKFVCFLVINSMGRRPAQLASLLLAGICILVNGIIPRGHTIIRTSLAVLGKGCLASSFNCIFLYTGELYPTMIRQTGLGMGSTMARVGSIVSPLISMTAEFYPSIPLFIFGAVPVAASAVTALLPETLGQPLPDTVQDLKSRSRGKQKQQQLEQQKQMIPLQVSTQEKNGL
The data set can be described thus: Two-point inhibition of mOat1-mediated PAH uptake in transfected HEK293 cells. It counts as in vitro ADME. The settings on record: PAH 10 μM, 1 min. The protocol:
Well-characterized mOct1-, mOct2-, mOat1-, mOat2-, mOat3-, mMate1-, hOAT1-, hOAT3-, hOAT4-, hMRP2-, mMdr1a- and mMdr1b-transfected HEK293 cells and the respective vector-transfected control HEK293 cells were used.[42],[51],[52] All HEK293 cells (transporter-transfected and vector-transfected) were cultured in DMEM (Sigma, high glucose, 10% FBS, 1% penicillin (10,000 Units/mL)/streptomycin (10 mg/mL)) at 37°C under 5% CO2 in humidified atmosphere. The cells were routinely checked for the absence of mycoplasma infection. For the preparation of HEK293 cell monolayers, 24-well plates were pretreated with a poly-D-lysine hydrobromide solution (0.1 mg/mL). Each well was coated with 0.5 mL of poly-D-lysine solution and incubated for at least 15 min. After complete removal of the solution, the plates were dried for 30 min. Cells (vector-transfected and transporter-transfected) treated with trypsin were immediately seeded into 24-well plates and cultured for 3 days before being used for transport experiments.
For the uptake assay, the growth medium was aspirated, and each well was rinsed three times with 0.5 mL of incubation buffer (HBSS supplemented with 20 mM HEPES, pH 7.4) and incubated for 20 min at 37 °C. Afterward, buffers were removed, and 200 μL of the incubation buffer containing a radiolabeled substrate and the nonlabeled CHD and CDCHD or reference inhibitor (Table S1), respectively, was added to each well and incubated at 37 °C for designated time intervals. […] Cells were solubilized with 0.6 mL of 1N NaOH overnight and transferred into scintillation vials. ^3H and ^14C contents were measured after the addition of 2.5 mL of scintillator in a liquid scintillation counter.
The cellular protein amount was determined in parallel for each cell line (vector- and transporter-transfected) from six wells in a different 24-well reference plate using the Bradford method. […]
The inhibitory effect (I(%)) was calculated according to the formula: [drawing 5] […]

On the set-up of data set [1]: method as in PMID 339024. As to conditions: phase II clinical trial, 1970s; cited from earlier work.
On the set-up of data set [2]: method as in PMID 38047701. The settings on record: 15 mg/kg IV; up to 8 h post administration; cited from earlier work.

For the compound `CC(=O)C1=C(O)[C@@H](N)[C@H]2Cc3c(c(O)c4c(O)c(C)ccc4c3C)C(=O)[C@@]2(O)C1=O` [CHD, chelocardin], on mOat1 (1 and 10 μM tested), the “inhibitory effect on mOat1” value is listed as “less than 50%”. The “inhibitory effect on mOat1 (in words)” value against mOat1 (1 and 10 μM) is reported as “concentration-dependent inhibitory effects”. The inhibition at 10 µM on mOat1 (HEK293, at 10 μM, read-out: inhibitory effect on mOat1) is about 50%. Also, in data set [1], the concentrations in urine was 11000 to 14000 ng/mL and the plasma concentrations is 1000 to 3000 ng/mL. The “urine levels of CHD compared to CDCHD” value in data set [2] is 10 fold.
